Experiments:
[1] = tested on: Glucagon; experiment: Plasma glucagon (EIA) after acute oral gavage; assay type: in vivo; details: oral 500 mg/kg, adult male Wistar rats, FIG. 3E
Protocol: The protocol was approved by the Ethics Committee for Animal Experiments of the University of Malaga.
D-Pinitol (3-0-methyl-D-chiro-inositol) was generously provided by EURONUTRA SL (https://www.euronutra.com/, Malaga, Spain), in the form of crystalline fine powder (lot: PPN-M0201). For acute treatments, D-Pinitol was dissolved in water to be administered by gavage (orally) at different concentrations (100 mg/Kg and 500 mg/Kg), drug was administered at a volume of 1 ml/kg.
(§1) After 18 hours of fasting, D-Pinitol dissolved in water was administered acutely by gavage (100 mg/kg in a first study, and 500 mg/kg in a subsequent study). After administration, the animals were sacrificed in groups at different times (being time 0 the administration of D-Pinitol). For the first study (100 mg/kg), groups of animals were sacrificed at times: 10, 20, 30, 60, 120, 240 and 360 minutes after administration; for the second study (500 mg/kg), animals were sacrificed at times: 60, 120 and 240 minutes after administration. […]
The plasma levels of insulin and ghrelin were determined with an enzyme-linked immunosorbent assay (ELISA) method using commercial kits: EMD Millipore Corporation (Billerica, Mass., USA) Cat. #EZRMI-13K and Cat. #EZRGRT-91K, respectively. Glucagon levels in plasma was determined with a Glucagon Enzyme Immunoassay (EIA) Kit: Cat. #RAB0202 Sigma-Aldrich (Saint Louis, Mo., USA). […]

[2] = tested on: Pyruvate Kinase Liver/RBC (Pklr); experiment: Liver pyruvate kinase gene expression (qPCR) after acute oral gavage; assay type: in vivo; details: oral 100 mg/kg, adult male Wistar rats, FIG. 2D
Protocol: as §1, with “administration. As a control group, a group was administered only with water (by gavage).” for “administration.”
Total RNA was extracted from tissue portions of liver (100-300 mg) using the Trizol® method according to the manufacturer's instructions (GIBCO BRL Life Technologies). […] Total RNA was quantified using a spectrophotometer (Nanodrop 1000 Spectrophotometer, Thermo Scientific) to ensure A260/280 ratios of 1.8 to 2.0. […]
Real-time qPCR was performed following the criteria of the MIQE guidelines (Bustin, S. A. et al. The MIQE guidelines: minimum information for publication of quantitative real-time PCR experiments. Clin Chem. 55,611-622 (2009)). […] For all reference and target gene studies, two independent biologic samples of each experimental condition were evaluated in technical duplicates. […]

COC1[C@@H](O)[C@@H](O)C(O)[C@H](O)[C@H]1O (stereo partly drawn) [DPIN, (1S,2S,4S,5R)-6-methoxycyclohexane-1,2,3,4,5-pentol]
glucagon secretion [1]: Increase
expression of Pyruvate Kinase [2]: Inhibition

Source: patent US20220313620A1, “COMPOSITION FOR PREVENTING AND TREATING TAUOPATHIES” (SERVICIO ANDALUZ DE SALUD, priority 2019, published 2022)
